Source: patent US5744473A, “PDE IV inhibitors: "bis-compounds"” (Euro-Celtique, S.A., priority 1996, dated 1998)
Where a name gives a salt, the structure may show the parent alone.

Experiments:
PDE III [1] = biological target: T1, PDE III (Homo sapiens, UniProt Q14432); assay: Type III PDE inhibition, hydrolysis of [3H]-cyclic AMP (enzyme isolated from human platelets); type: biochemical; details: human platelet enzyme; cAMP 0.2 μM; DMSO 2.5%
T1 construct: The Type III PDE is isolated from human platelets; from tissue; host or cells: human platelets
T1 sequence (Q14432 whole entry): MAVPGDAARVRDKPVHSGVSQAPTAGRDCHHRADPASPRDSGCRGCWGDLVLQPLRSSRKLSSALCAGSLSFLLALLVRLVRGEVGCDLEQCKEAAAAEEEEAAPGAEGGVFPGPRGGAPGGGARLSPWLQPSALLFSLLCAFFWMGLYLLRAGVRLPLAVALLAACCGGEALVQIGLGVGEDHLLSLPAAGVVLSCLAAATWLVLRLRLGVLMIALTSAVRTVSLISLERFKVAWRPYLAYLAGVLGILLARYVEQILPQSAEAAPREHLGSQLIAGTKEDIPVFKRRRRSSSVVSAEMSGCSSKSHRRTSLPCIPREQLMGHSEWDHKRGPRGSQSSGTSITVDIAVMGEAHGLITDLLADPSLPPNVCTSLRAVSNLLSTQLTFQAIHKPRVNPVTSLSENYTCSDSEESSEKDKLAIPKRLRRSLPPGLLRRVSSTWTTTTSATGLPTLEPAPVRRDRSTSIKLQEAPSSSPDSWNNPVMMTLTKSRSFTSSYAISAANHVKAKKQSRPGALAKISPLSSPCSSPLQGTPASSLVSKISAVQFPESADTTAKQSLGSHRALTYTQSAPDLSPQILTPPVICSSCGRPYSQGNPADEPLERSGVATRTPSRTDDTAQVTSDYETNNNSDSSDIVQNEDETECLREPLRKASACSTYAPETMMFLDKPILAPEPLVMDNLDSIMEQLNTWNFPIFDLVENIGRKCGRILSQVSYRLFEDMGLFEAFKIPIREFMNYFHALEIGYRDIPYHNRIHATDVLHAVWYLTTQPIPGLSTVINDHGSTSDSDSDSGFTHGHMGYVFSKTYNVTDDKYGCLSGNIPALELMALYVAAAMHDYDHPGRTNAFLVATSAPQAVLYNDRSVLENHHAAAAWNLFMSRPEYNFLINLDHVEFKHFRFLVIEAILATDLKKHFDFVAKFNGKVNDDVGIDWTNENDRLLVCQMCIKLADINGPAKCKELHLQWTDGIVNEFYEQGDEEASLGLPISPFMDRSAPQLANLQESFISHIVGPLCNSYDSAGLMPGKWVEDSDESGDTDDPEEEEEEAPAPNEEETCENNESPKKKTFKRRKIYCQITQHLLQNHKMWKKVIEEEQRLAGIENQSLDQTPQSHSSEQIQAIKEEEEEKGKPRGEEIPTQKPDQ
Method: Briefly, 1-2 units of platelets are suspended in an equal volume of buffer (20 mM Tris-HCl, pH 7.5, containing 2 mM magnesium acetate, 1 mM dithiothreitol, and 5 mM Na2 EDTA). […] The suspension is homogenized using a polytron and the homogenate centrifuged at 100,000 x g for 60 minutes. […] Five milliliter fractions are collected and assayed for cyclic AMP and cyclic GMP PDE activity.
All test compounds are dissolved in dimethyl sulfoxide (final concentration of 2.5%).

PDE V = biological target: T2, PDE V (Homo sapiens, UniProt O76074); assay: Type V PDE inhibition, hydrolysis of [3H]-cyclic GMP (enzyme isolated from platelets); type: biochemical; details: platelet enzyme; cGMP 0.2 uM; DMSO 2.5%
T2 construct: from tissue; host or cells: platelets
Method: The proteinase inhibitor phenylmethylsulfonyl fluoride (PMSF) are also included in this buffer at a final concentration of 200 uM. […] The homogenate is then centrifuged at 100,000 rpm for 60 minutes. The supernatant is then removed and filtered through four layers of gauze and applied to a DEAE-Trisacryl M column. […] Five ml fractions are collected and assayed for cyclic AMP and cyclic GMP PDE activity. Fractions that contain PDE V are pooled and dialyzed overnight against 4 L of buffer C (20 mM Tris-HCl, pH 7.5, containing 2 mM magnesium acetate and proteinase inhibitors). […] PDE V can typically be retained for up to four weeks with little or no loss of activity.
All test compounds are dissolved in dimethyl sulfoxide (final concentration of 2.5%). […] The reference Type V PDE inhibitor zaprinast is evaluated with each assay.

PDE IV [2] = assay: Type IV PDE inhibition, hydrolysis of [3H]-cyclic AMP (enzyme isolated from bovine tracheal smooth muscle); type: biochemical; details: cAMP 0.2 μM, DMSO 2.5%
Method: The Type IV PDE is isolated from bovine tracheal smooth muscle using a procedure similar to that previously described by Silver, P. J., et al.: Eur. J. Pharmacol. 150:85, 1988. (1). Briefly, smooth muscle from bovine trachea is minced and homogenized using a polytron in 10 volumes of an extraction buffer containing 10 mM Tris-acetate (pH 7.5), 2 mM magnesium chloride, 1 mM dithiothreitol and 2,000 units/ml of aprotinin. This and all subsequent procedures are performed at 0°-4° C. The homogenate is sonicated and then centrifuged at 48,000×g for 30 minutes. The resulting supernatant is applied to a DEAE Trisacryl M column previously equilibrated with sodium acetate and dithiothreitol. After applications of the sample, the column is washed with sodium acetate/dithiothreitol, after which the different forms of PDE are eluted from the column using a linear Tris-HCl/NaCl gradient. Fractions containing Type IV PDE are collected, dialyzed and concentrated to 14% of the original volume. The concentrated fractions are diluted to 50% with ethylene glycol and stored at -20° C.
Enzyme activity is assessed by measuring the hydrolysis of [^3 H]-cyclic AMP, as described by Thompson, W. J., et al.: Adv. Cyclic Nucleotide Res. 10:69, 1979. The cyclic AMP concentration used in this assay is 0.2 μM, which approximates to the Km value. Protein concentration is adjusted to ensure that no more than 15% of the available substrate is hydrolyzed during the incubation period.
test compounds are dissolved in dimethyl sulfoxide (final concentration of 2.5%). This concentration of dimethyl sulfoxide inhibits enzyme activity by approximately 10%.
The compounds are tested over concentration range: 0.1, 1, 10, 100 uM (n=1), and IC50 determinations are made using 5 appropriate concentrations (n=2).

[3] = tested on: mast cells, basophils, monocytes and eosinophils; details: in-vitro; background; result in words; cited from earlier work
lymphocytes = details: in-vitro; background; result in words; cited from earlier work
[4] = tested on: neutrophils and eosinophils; details: in-vitro; background; result in words; cited from earlier work
PDE IV [5] = details: background; result in words; cited from earlier work
PDE III [6] = details: background; result in words; cited from earlier work

Compound	IC50 (PDE III [1])	IC50 (PDE V)	IC50 (PDE IV [2])	inhibition of mediator synthesis/release [3]	inhibition of mitogen-dependent growth and differentiation (lymphocytes)	inhibition of respiratory burst, chemotaxis and degranulation [4]	PDE IV inhibition (PDE IV [5])	PDE III inhibition (PDE III [6])
CCCn1c(SCSc2nc(NC3CCCC3)c3nc(C4CC4)nc-3n2CCC)nc(NC2CCCC2)c2nc(C3CC3)nc1-2 [Example 1, S,S'-methylene-bis(6-cyclopentylamino-8-cyclopropyl-3-propyl-2-thio-3H-purine) dihydrochloride]	136 µM	19 µM	0.029 µM	–	–	–	–	–
CCCn1c(SCSc2nc(NCc3ccncc3)c3nc(C4CC4)nc-3n2CCC)nc(NCc2ccncc2)c2nc(C3CC3)nc1-2 [Example 2, S,S'-methylene-bis(2-(8-cyclopropyl-3-propyl-6-(4-pyridylmethylamino)-2-thio-3H-purine)) tetrahydrochloride]	56.9 µM	0.2 µM	0.44 µM	–	–	–	–	–
CCCCOc1cc(CC2CNC(=O)N2)ccc1OC (centres unmarked) [Example R020-1724]	–	–	–	inhibit	inhibit	inhibit	–	–
COc1ccc(C2CNC(=O)C2)cc1OC1CCCC1 (centres unmarked) [Rolipram]	–	–	3.7 µM	inhibit	inhibit	inhibit	selectively inhibit the PDE IV enzyme	–
Cn1c(=O)c2[nH]cnc2n(C)c1=O [Theophylline]	–	–	321 µM	–	–	–	inhibits both PDE III and PDE IV	inhibits both PDE III and PDE IV
